# Test results published in article PMC10563396, “Anti-Inflammatory Role of TRPV4 in Human Macrophages” (ImmunoHorizons, 2023).
# Target: TRPV4 (Homo sapiens, UniProt Q9HBA0)
# Assay: fura […] Ca2+ imaging dose response in human primary monocyte-derived macrophages (endogenous TRPV4); response reduced by TRPV4 siRNA knockdown; EC50 […] (GM-CSF) and […] (M-CSF)
# Type: cell-based
# Sequence of TRPV4 (Q9HBA0 whole entry): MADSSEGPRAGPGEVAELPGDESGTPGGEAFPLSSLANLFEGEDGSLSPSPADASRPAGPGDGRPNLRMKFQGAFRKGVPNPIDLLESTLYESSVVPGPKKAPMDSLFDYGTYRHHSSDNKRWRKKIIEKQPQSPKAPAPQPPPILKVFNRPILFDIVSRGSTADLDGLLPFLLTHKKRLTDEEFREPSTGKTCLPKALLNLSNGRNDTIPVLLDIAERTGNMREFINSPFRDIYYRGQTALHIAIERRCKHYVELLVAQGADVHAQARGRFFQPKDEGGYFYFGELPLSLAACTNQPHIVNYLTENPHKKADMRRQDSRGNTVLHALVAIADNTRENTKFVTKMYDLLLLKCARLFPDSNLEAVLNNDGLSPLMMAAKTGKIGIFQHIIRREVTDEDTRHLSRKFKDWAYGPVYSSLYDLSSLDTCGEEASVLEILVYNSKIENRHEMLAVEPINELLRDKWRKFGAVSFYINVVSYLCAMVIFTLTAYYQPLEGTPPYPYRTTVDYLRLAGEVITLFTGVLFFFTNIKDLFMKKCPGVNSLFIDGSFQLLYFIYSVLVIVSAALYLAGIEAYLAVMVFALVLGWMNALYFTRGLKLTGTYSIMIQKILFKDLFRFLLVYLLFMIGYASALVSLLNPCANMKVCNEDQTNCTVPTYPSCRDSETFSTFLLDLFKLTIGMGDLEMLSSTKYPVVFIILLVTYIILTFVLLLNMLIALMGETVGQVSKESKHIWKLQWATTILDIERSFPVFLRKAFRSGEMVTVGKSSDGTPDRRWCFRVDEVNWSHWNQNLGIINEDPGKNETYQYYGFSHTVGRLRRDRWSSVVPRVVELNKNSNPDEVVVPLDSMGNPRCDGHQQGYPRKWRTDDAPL
compound,measurement,value
CC(C)C[C@H](NC(=O)c1cc2ccccc2s1)C(=O)N1CCN(C(=O)[C@H](CO)NS(=O)(=O)c2ccc(Cl)cc2Cl)CC1 [GSK1016790A],EC50,580 nM
